Results: patent US7018828B1, “Microbial culture medium containing agar and iota carrageenan” (priority 2001, dated 2006)

Experiments:
[1] = Syneresis of Mueller-Hinton agar at various iota carrageenan concentrations with and without calcium; format: physicochemical; conditions: 1 mM calcium added; media with 0.4%, 0.6% and 0.8% iota carrageenan
Experimental: In a second example, research was conducted to determine the ability of iota carrageenan to stabilize agar gels at a variety of concentrations of carrageenan with and without calcium. The results of this research are summarized in the tables of FIG. 41A entitled: “The Effect of Iota Carrageenan, Without Added Calcium, on Syneresis of Mueller-Hinton Agar,” and in FIG. 42A, entitled: “The Effect of Iota Carrageenan, with 1 mM added Calcium, on Syneresis of Mueller-Hinton Agar. The graphs associated with the above two figures found in FIG. 41B and 42B pictorially illustrate the syneresis-reducing-effect of iota carrageenan and the synergistic effects of adding calcium with certain concentrations of iota carrageenan

[2] = Syneresis of agar-based media (Blood, Chocolate, MacConkey, Azide blood agar) after storage; format: physicochemical; conditions: 0.2% iota carrageenan plus 1 mM calcium chloride; each of four agars; 28 days at 5° C.
Experimental: In a first example, the ability of iota carrageenan to stabilize agar-based media was assessed. The media chosen for this example were used in several of the embodiments of the agar-based media of the invention listed in this application. More specifically, in this example, Blood agar, Chocolate agar, MacConkey agar, and Azide blood agar were each prepared three different ways: (1) without any additions, to serve as a control, (2) with the addition of 0.2% (final concentration) Iota Carrageenan, and (3) with the addition of 0.2% Iota Carrageenan plus 1 mM Calcium chloride. These additions were made at time of hydration as described above, and prior to autoclaving. Following the sterilization step (autoclaving), the processes of preparing blood agar, chocolate agar and azide blood agar from the base media were performed using standard microbiology methods. Defibrinated sterile sheep red blood cells and sodium azide were two of the reagents used. The complete MacConkey medium was prepared using all three ways prior to autoclaving. Each of the twelve different media were dispensed at 50° C. into four polystyrene sterile T-flasks (25 cm^2) with tight-fitting screw caps and stored for 28 days at refrigerator temperature(5° C.), at which point the amount of water of syneresis was measured. […]

With `[Ca+2].[Cl-].[Cl-]` [calcium, Calcium chloride] the “syneresis of Mueller-Hinton agar, effect of adding calcium” value [1] was “effect of adding calcium is also apparent” and the “amount of water of syneresis, effect of adding calcium to carrageenan media” value [2] was “further reduced the amount of syneresis”.
